This is an account of results in patent publication US9428456B2, “1-[m-carboxamido(hetero)aryl-methyl]-heterocyclyl-carboxamide derivatives” (Actelion Pharmaceuticals Ltd., priority 2012, dated 2016).

pEC50: −log10 of the molar value.

The target in the test is CXCR7 (Homo sapiens (Human), UniProt P25106). In words: PathHunter CHO-K1 CXCR7 b-arrestin assay (agonistic activity). In kind it is cell-based. Conditions: PathHunter CHO-K1 CXCR7 b-arrestin cell line. A digest of the protocol: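 CHO-K1 cells co-expressing ProLink-tagged CXCR7 and EA-fused β-arrestin 2 (enzyme fragment complementation); compounds added in HBSS/20 mM HEPES/0.2% BSA after 3–4 h in OPTIMEM, 90 min at 37 °C. Chemiluminescent β-gal signal read after 1 h detection at room temperature; EC50 reported as geometric mean of several measurements.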
Chain of CXCR7 (P25106 whole entry, the tested form may be a part): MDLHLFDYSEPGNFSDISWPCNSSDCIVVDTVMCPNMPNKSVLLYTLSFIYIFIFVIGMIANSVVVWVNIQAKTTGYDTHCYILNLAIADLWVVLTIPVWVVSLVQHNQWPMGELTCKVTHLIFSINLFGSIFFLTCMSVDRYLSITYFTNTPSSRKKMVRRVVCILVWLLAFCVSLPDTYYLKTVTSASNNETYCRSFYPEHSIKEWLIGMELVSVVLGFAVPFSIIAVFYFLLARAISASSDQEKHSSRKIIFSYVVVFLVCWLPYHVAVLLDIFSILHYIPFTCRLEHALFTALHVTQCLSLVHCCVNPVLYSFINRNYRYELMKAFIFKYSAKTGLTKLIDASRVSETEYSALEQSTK
Chain of CXCR7 (P32121 whole entry partner, the tested form may be a part): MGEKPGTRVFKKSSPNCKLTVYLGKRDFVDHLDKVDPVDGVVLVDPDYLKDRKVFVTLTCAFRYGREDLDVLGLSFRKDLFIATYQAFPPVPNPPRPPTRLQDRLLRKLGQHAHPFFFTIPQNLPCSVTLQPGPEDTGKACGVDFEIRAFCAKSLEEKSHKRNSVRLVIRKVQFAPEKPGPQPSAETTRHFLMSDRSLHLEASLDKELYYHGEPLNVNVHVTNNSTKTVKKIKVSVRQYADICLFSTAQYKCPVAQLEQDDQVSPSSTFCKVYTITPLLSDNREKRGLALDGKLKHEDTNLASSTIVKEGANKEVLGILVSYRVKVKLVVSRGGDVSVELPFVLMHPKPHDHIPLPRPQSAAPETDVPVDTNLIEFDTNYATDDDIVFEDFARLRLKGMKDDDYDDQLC
Regarding `CCC(C)(C)NC(=O)C1CCN(Cc2cccc(NC(=O)c3ncc(Cl)cc3F)c2)CC1` [Example 1.343], the pEC50 was 9.00.

In turn, `CC(c1cccc(NC(=O)c2cnc3[nH]ccc3c2)c1)N1CCC(C(=O)NC2CCCCC2)CC1` (racemic) [Example 1.190] gave a pEC50 of 6.87.

`CC(C)(C)NC(=O)C1CCN(Cc2cccc(NC(=O)c3cccc(C(F)(F)F)n3)c2)CC1` [Example 1.228] showed a pEC50 of 9.00.

Turning to `O=C(Nc1cccc(CN2CCC(C(=O)NC3CCCCC3)CC2)c1)c1ccccc1OC(F)(F)F` [Example 1.095], the pEC50 was 8.30.

Compound `Cc1cncc(C(=O)Nc2ccc(C)c(CN3CCC(C(=O)NC(C)(C)C)CC3)c2)c1` [Example 1.299] had a negative-log EC50 (pEC50) of 8.52.

As for `CC(C)(C)NC(=O)C1CCN(Cc2cccc(NC(=O)Cc3ccc(F)cc3Cl)c2)CC1` [Example 1.248], the pEC50 is 8.70.

As for `CC(c1cccc(NC(=O)c2ccncc2Cl)c1)N1CCC(C(=O)NC2CCCCC2)CC1` (racemic) [Example 1.174], the pEC50 was 6.25.

Compound `CC(C)(C)NC(=O)C1CCN(Cc2cccc(NC(=O)c3ccc(Cl)c[n+]3[O-])c2)CC1` [Example 4.024, 5-Chloro-1-oxy-pyridine-2-carboxylic acid [3-(4-tert-butylcarbamoyl-piperidin-1-ylmethyl)-phenyl]-amide] had a pEC50 of 8.52.

`Cc1cncc(C(=O)Nc2cccc(CN3CCC(C(=O)NC(C)(C)C)CC3)c2C)c1` [Example 1.314] had a negative logarithm of the EC50 (pEC50) of 6.84.

`Cn1cc(C(=O)Nc2cccc(CN3CCC(C(=O)NC4CCCCC4)CC3)c2)c2ccccc21` [Example 1.026] gave a pEC50 of 6.74.

As to `Cc1cc(C)cc(C(=O)Nc2cccc(CN3CCC(C(=O)NC4CCCCC4)CC3)c2)c1` [Example 1.112], the pEC50 is 7.68.

For the compound `CC(C)(C)NC(=O)C1CCN(Cc2cccc(NC(=O)Cc3ccc(Cl)cc3Cl)c2)CC1` [Example 1.244], the pEC50 was 8.30.

As to `CC(C)(C)NC(=O)C1CCN(Cc2cccc(NC(=O)C3C(C)(C)C3(C)C)c2)CC1` [Example 1.260], the pEC50 was 9.05.

As to `Cc1ccc(C(=O)Nc2cccc(CN3CCC(C(=O)NC4CCCCC4)CC3)c2)cc1C` [Example 1.113], the pEC50 is 8.15.

The compound `Cc1cncc(C(=O)Nc2cccc(CN3CCC(C(=O)NC4CCCC4)CC3)c2)c1` [Example 6.002, N-(3-((4-(cyclopentylcarbamoyl)piperidin-1-yl)d2methyl)phenyl)-5-methylnicotinamide] showed a pEC50 of 8.40.

Take `Cc1cc(C)nc(C(=O)Nc2cccc(CN3CCC(C(=O)NC4CCCCC4)CC3)c2)c1` [Example 1.083]: the pEC50 is 7.96.

Compound `Cc1cc(C(=O)Nc2cccc(C(C)N3CCC(C(=O)NC4CCCCC4)CC3)c2)ncn1` (racemic) [Example 1.198] had a pEC50 of 7.04.

`COc1ccc(NC(=O)c2ccc(F)cc2)cc1CN1CCC(C(=O)NC(C)(C)C)CC1` [Example 1.298] showed a pEC50 of 7.72.

Take `O=C(Nc1cccc(CN2CCC(C(=O)NC3CCCCC3)CC2)c1)c1cnc2cc[nH]c2c1` [Example 1.093]: the pEC50 was 6.83.

In turn, “1-[3-(4-Chloro-benzoylamino)-benzyl]-piperidine-4-carboxylic acid (tetrahydro-pyran-4-yl)-amide [Example 2.013]” had a negative-log EC50 (pEC50) of 7.89.

Regarding `Cc1ccccc1C(=O)Nc1cccc(CN2CCC(C(=O)NC3CCCCC3)CC2)c1` [Example 1.099], the pEC50 is 7.72.

On to `Cc1ncncc1C(=O)Nc1cccc(CN2CCC(C(=O)NC3CCCCC3)CC2)c1` [Example 1.086], for which the negative logarithm of the EC50 (pEC50) was 6.28.

In the case of `O=C(Nc1cccc(CN2CCC(C(=O)NC3CCCCC3)CC2)c1)c1cc(F)cc(F)c1` [Example 1.019], the pEC50 is 8.70.

Compound `CC(C)CN(C)C(=O)C1CCN(Cc2cccc(NC(=O)c3cncc(Cl)c3)c2)CC1` [Example 1.278] gave a pEC50 of 8.22.

For the compound `CC(C)CN(C)C(=O)C1CCN(Cc2cccc(NC(=O)c3ccc(F)cc3)c2)CC1` [Example 1.273], the pEC50 is 8.70.

Consider `CCc1cncc(C(=O)Nc2cccc(CN3CCC(C(=O)NC4CCCCC4)CC3)c2)c1` [Example 1.154], for which the pEC50 was 8.70.

For the compound `Cc1cc(F)cc(C(=O)Nc2cccc(CN3CCC(C(=O)NC4CCCCC4)CC3)c2)c1` [Example 1.117], the pEC50 was 8.40.

Compound `Cc1sc(C(=O)Nc2cccc(CN3CCC(C(=O)NC4CCCCC4)CC3)c2)cc1CC(C)C` [Example 1.004] had a pEC50 of 7.40.

The compound `O=C(Nc1cccc(CN2CCC(C(=O)NC3CCCCC3)CC2)c1)c1ccccc1Cl` [Example 1.050] had a pEC50 of 7.92.

Take `N#Cc1ccc(C(=O)Nc2cccc(CN3CCC(C(=O)NC4CCCCC4)CC3)c2)cc1` [Example 1.107]: the pEC50 is 8.10.

Turning to `O=C(Nc1cccc(CN2CCC(C(=O)NC3CCCCC3)CC2)c1)C1CCCCC1` [Example 1.151], the pEC50 is 8.00.

`O=C(Nc1cccc(CN2CCC(C(=O)NC3CCCCC3)CC2)c1)c1cc(C(F)(F)F)cc(C(F)(F)F)c1` [Example 1.136] showed a negative logarithm of the EC50 (pEC50) of 7.37.

`CC(C)(C)c1ccc(C(=O)Nc2cccc(CN3CCC(C(=O)NC4CCCCC4)CC3)c2)s1` [Example 1.283] had a pEC50 of 7.47.

In the case of `O=C(Nc1cccc(CN2CCC(C(=O)NC3CCCCC3)CC2)c1)c1nccc2ccccc12` [Example 1.021], the pEC50 is 7.41.

In turn, `CC(C)(C)NC(=O)C1CCN(Cc2cccc(NC(=O)c3ccc(F)cc3)c2)CC1` [Example 1.223] had a pEC50 of 9.30.

On to `COc1cc(C(=O)Nc2cccc(CN3CCC(C(=O)NC4CCCCC4)CC3)c2)cc(Cl)n1` [Example 1.075], for which the negative logarithm of the EC50 (pEC50) is 8.05.

In turn, `CCC(C)NC(=O)C1CCCN(Cc2cccc(NC(=O)c3cncc(C)c3)c2)CC1` (racemic) [Example 1.288] gave a pEC50 of 7.48.

For `O=C(Nc1cccc(CN2CCC(C(=O)NC3CCCCC3)CC2)c1)c1ccc(Cl)cc1Cl` [Example 1.138], the pEC50 was 8.22.

`O=C(Nc1cccc(CN2CCC(C(=O)NC3CCCC3)CC2)c1)c1cncc(Cl)c1` [Example 1.209] had a pEC50 of 9.00.

`O=C(Nc1ccc(Cl)c(CN2CCC(C(=O)NC3CCCC3)CC2)c1)c1ccccc1` [Example 1.217] gave a negative logarithm of the EC50 (pEC50) of 9.40.

For `O=C(Nc1cccc(CN2CCC(C(=O)NC3CCCCC3)CC2)c1)c1ccc(F)cc1Cl` [Example 1.133], the pEC50 is 8.15.

`CN(C)C/C=C/C(=O)Nc1cccc(CN2CCC(C(=O)NC(C)(C)C)CC2)c1` [Example 1.342] had a pEC50 of 6.67.

For `CC(C)(C)NC(=O)C1CCN(Cc2cccc(NC(=O)c3ccc4cnccc4n3)c2)CC1` [Example 1.234], the pEC50 was 8.70.

With `O=C(Nc1cccc(CN2CCC(C(=O)NC3CCCCC3)CC2)c1Cl)c1ccc(Cl)cc1` [Example 1.162], the negative-log EC50 (pEC50) was 5.56.

Consider `O=C(Nc1cccc(CN2CCC(C(=O)NC3CCCCC3)CC2)c1)c1cc(Cl)ccn1` [Example 1.077], for which the pEC50 is 8.52.

Regarding `O=C(Nc1cccc(CN2CCC(C(=O)NC3CCCCC3)CC2)c1)c1ccccc1F` [Example 1.102], the pEC50 is 8.40.

The compound `CC(C)(C)NC(=O)C1CCN(Cc2cccc(NC(=O)c3ccnnc3)c2)CC1` [Example 1.323] gave a pEC50 of 7.18.

`O=C(Nc1cccc(CN2CCC(C(=O)NC3CCCC3)CC2)c1)c1ccc(F)cn1` [Example 1.207] gave a pEC50 of 9.10.

For the compound `Cc1ccc(C(=O)Nc2cccc(CN3CCC(C(=O)NC4CCCCC4)CC3)c2)c(F)c1` [Example 1.119], the negative-log EC50 (pEC50) is 8.22.

In turn, `Cc1ccc(C(=O)Nc2cccc(CN3CCC(C(=O)NC4CCCCC4)CC3)c2Cl)s1` [Example 1.163] showed a pEC50 of 6.41.

Regarding `O=C(Nc1cccc(CN2CCC(C(=O)NC3CCCC3)CC2)c1)c1ccc2ncccc2c1` [Example 1.213], the pEC50 is 8.52.

In the case of `COc1ccc(C(=O)Nc2cccc(CN3CCC(C(=O)NC4CCCCC4)CC3)c2)cn1` [Example 1.092], the pEC50 was 8.52.

Consider `Cc1cc(C)nc(C(=O)Nc2cccc(C(C)N3CCC(C(=O)NC4CCCCC4)CC3)c2)c1` (racemic) [Example 1.192], for which the pEC50 is 6.99.

As to `COc1c(CN2CCC(C(=O)NC(C)(C)C)CC2)cccc1NC(=O)c1cncc(C)c1` [Example 1.320], the pEC50 is 7.32.

`O=C(Nc1cccc(CN2CCC(C(=O)NC3CCCCC3)CC2)c1)c1ccc(Cl)nc1` [Example 1.067] had a pEC50 of 8.70.

Compound `CC(C)(C)NC(=O)C1CCN(Cc2cccc(NC(=O)Cc3cnccn3)c2)CC1` [Example 1.263] gave a pEC50 of 6.84.

`Cc1cc(CN2CCC(C(=O)NC(C)(C)C)CC2)cc(NC(=O)c2ccc(F)cc2)c1` [Example 1.318] showed a pEC50 of 7.89.

Take `Cc1cccc(C(=O)Nc2cccc(C(C)N3CCC(C(=O)NC4CCCCC4)CC3)c2)n1` (racemic) [Example 1.182]: the pEC50 was 8.15.

`O=C(Nc1cccc(CN2CCC(C(=O)NC3CCCCC3)CC2)c1)c1ccc(CCF)cc1` [Example 1.148] gave a pEC50 of 8.30.

As for `CC(C)(C)NC(=O)C1CCN(Cc2cccc(NC(=O)c3cccc(S(C)(=O)=O)c3)c2)CC1` [Example 1.352], the pEC50 was 7.15.

On to `COC(=O)c1cncc(C(=O)Nc2cccc(CN3CCC(C(=O)NC(C)(C)C)CC3)c2)c1` [Example 1.349], for which the pEC50 is 7.47.

For the compound `COc1ccc(OCC(=O)Nc2cccc(C(C)N3CCC(C(=O)NC4CCCCC4)CC3)c2)cc1` (racemic) [Example 1.175], the pEC50 is 6.74.

Turning to `O=C(Cc1ccccc1Cl)Nc1cccc(CN2CCC(C(=O)NC3CCCCC3)CC2)c1` [Example 1.025], the pEC50 was 8.52.

Compound `O=C(Nc1cccc(CN2CCC(C(=O)NC3CCCC3)CC2)c1)c1cncc(C(F)(F)F)c1` [Example 1.212] showed a pEC50 of 8.70.

For `Cc1c(CN2CCC(C(=O)NC(C)(C)C)CC2)cccc1NC(=O)c1cccc(C(F)(F)F)n1` [Example 1.315], the pEC50 was 6.71.

Regarding `N#Cc1cccc(C(=O)Nc2cccc(CN3CCC(C(=O)NC4CCCCC4)CC3)c2)c1` [Example 1.106], the pEC50 is 7.92.

A word on the pEC50: it is −log10 of the EC50, conventionally taken in molar units.
